Data on two molecules can be found in publication PMC6351562, “Structure, function, and inhibition of drug reactivating human gut microbial β-glucuronidases” (Scientific Reports, 2019).

For test [1], the target named is T1, E. coli GUS (EcGUS) (Escherichia coli, UniProt P05804). As to the kind of experiment: In vitro inhibition assay (pNPG hydrolysis). It is filed as biochemical. The conditions noted are these: for IC50: pNPG 900 µM, 1 hour end point.
The target in test [2] is T2, Eubacterium eligens GUS (EeGUS) (Lachnospira eligens, UniProt C4Z6Z2).
T2 sequence (C4Z6Z2 1-611): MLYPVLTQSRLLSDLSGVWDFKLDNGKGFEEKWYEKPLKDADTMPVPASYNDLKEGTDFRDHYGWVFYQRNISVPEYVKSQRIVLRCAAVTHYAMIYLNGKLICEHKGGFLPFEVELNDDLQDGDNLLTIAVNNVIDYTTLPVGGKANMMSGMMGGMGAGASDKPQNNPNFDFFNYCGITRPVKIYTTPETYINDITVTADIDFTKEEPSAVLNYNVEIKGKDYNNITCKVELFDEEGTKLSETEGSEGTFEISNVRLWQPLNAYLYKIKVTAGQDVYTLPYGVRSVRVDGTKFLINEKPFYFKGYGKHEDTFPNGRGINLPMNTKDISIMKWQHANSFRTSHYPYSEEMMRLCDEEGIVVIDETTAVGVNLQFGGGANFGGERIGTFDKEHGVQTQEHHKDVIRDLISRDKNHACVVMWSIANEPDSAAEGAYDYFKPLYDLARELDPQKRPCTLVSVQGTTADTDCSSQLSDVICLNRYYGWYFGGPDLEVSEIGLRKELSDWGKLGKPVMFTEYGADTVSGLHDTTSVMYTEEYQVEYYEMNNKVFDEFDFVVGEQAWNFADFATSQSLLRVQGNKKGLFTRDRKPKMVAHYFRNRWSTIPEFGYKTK
The experiment in a line: In vitro inhibition assay (pNPG hydrolysis). It counts as biochemical. The conditions noted are these: pNPG 900 µM.

Test [3] concerns the target T3, Streptococcus agalactiae GUS (SaGUS) (Streptococcus agalactiae serotype V, UniProt Q8E0N2).
T3 construct: 6x His; made in house
As to the kind of experiment: In vitro inhibition assay (pNPG hydrolysis). It is filed as biochemical. The conditions noted are these: for IC50: pNPG 900 µM.

Test [4] deals with T4, Ruminococcus gnavus GUS (RgGUS) (Mediterraneibacter gnavus, UniProt A0A2N5PVZ8).
T4 sequence (A0A2N5PVZ8 1-603): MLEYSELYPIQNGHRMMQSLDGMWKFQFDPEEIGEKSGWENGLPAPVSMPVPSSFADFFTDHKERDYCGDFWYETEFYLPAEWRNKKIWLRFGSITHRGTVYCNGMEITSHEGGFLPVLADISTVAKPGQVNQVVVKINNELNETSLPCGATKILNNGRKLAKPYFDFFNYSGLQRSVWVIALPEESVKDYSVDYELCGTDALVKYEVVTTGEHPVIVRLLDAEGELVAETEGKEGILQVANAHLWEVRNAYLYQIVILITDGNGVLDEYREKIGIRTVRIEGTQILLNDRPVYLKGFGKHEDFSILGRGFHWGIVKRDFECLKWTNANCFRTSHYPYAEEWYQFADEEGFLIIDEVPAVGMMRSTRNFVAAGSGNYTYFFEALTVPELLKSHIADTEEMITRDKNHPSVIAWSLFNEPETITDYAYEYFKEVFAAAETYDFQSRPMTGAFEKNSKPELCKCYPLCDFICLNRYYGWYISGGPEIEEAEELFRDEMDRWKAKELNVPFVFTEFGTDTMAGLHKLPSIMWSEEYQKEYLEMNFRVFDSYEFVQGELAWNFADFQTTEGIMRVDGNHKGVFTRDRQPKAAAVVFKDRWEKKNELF
The experiment in a line: In vitro inhibition assay (pNPG hydrolysis). It counts as biochemical.

The target in test [5] is T5, Bacteroides fragilis GUS (BfGUS) (Bacteroides fragilis, UniProt Q5LIC7). The experiment in a line: In vitro inhibition assay (pNPG hydrolysis). It is filed as biochemical.
T5 sequence (Q5LIC7 whole entry): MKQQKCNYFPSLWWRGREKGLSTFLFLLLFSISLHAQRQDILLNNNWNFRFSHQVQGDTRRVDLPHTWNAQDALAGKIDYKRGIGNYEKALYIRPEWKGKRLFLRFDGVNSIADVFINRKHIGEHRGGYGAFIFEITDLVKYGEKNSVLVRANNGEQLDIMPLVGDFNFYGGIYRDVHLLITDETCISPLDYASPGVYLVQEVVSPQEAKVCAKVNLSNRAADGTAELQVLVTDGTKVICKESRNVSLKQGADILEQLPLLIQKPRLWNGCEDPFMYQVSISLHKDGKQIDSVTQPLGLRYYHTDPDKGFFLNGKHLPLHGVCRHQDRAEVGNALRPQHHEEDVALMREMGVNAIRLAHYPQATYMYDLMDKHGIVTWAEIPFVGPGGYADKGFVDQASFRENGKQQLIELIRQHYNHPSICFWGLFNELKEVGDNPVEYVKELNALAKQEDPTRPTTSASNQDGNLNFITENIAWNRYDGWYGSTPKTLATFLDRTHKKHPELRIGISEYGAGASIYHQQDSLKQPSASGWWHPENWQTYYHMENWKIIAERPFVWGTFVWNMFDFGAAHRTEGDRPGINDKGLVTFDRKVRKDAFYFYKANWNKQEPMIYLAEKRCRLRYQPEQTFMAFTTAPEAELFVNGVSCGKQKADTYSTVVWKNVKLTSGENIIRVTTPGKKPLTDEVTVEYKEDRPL
Test [6] addresses T6, Bacteroides uniformis GUS (BuGUS) (Bacteroides uniformis, UniProt A0A078SUX9).
T6 sequence (A0A078SUX9 32-886): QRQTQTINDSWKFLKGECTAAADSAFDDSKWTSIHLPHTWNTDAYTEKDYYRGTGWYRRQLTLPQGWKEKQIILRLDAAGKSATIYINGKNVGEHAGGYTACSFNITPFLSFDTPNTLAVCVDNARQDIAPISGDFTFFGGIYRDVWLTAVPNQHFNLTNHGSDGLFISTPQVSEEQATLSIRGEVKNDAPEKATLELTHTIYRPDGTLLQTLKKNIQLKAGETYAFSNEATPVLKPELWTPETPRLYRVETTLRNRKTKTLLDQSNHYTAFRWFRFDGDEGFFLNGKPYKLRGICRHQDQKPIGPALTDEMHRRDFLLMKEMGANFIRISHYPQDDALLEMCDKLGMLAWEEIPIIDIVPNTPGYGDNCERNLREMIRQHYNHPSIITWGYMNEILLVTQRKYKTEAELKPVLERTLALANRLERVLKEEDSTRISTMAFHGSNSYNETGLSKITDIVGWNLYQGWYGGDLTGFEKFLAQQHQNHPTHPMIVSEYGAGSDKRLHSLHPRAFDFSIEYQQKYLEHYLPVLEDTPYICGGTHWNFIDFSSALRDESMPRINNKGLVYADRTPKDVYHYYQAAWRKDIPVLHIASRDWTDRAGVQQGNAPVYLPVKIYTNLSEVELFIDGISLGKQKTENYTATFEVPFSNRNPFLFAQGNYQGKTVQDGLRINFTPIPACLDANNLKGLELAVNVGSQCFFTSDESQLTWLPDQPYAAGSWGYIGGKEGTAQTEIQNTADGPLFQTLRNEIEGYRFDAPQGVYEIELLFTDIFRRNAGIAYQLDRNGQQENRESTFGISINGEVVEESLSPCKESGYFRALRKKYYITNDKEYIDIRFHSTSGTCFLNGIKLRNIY
The experiment in a line: In vitro inhibition assay (pNPG hydrolysis). It is filed as biochemical.

In a further test the test system is EcGUS F365A. It counts as biochemical, E. coli. Conditions: IC50 curves, Fig. S14.
The target in test [7] is T1, E. coli GUS (EcGUS). More on the design: method as in PMID 21051639, PMID 26364932, PMID 30062115. The conditions noted are these: earlier work; cited from earlier work.
The target in test [8] is T5, Bacteroides fragilis GUS (BfGUS). Also noted: method as in PMID 21051639, PMID 26364932, PMID 30062115. Conditions: earlier work; cited from earlier work.
The mark [9] stands for this setting: read-out: inhibition at 100 µM Inhibitor 1, 100 µM, pH 6.5 and 7.5.
Setting [10] is: Inhibitor 1 (IC50, nM) pH 6.5, pH 6.5.
Where [11] appears, read: Inhibitor 1 (IC50, nM) pH 7.5, pH 7.5.
[12] abbreviates: read-out: Inhibitor 1 (IC50, nM) pH 7.5, pH 7.5, pNPG 900 µM.
Setting [13] is: pH 6.5, 1 hour end point, read-out: UNC10201652 (IC50, nM) pH 6.5.
Setting [14] is: pH 7.5, 1 hour end point, read-out: UNC10201652 (IC50, nM) pH 7.5.
Where [15] appears, read: pH 7.5, pNPG 900 µM, read-out: UNC10201652 (IC50, nM) pH 7.5.
The mark [16] stands for this setting: read-out: UNC10201652 (IC50, nM) pH 6.5.

Like-named read-outs stand apart in the source and are kept apart here. A value given as a limit tells only on which side of the number the result lay.

T1 sequence (P05804 whole entry): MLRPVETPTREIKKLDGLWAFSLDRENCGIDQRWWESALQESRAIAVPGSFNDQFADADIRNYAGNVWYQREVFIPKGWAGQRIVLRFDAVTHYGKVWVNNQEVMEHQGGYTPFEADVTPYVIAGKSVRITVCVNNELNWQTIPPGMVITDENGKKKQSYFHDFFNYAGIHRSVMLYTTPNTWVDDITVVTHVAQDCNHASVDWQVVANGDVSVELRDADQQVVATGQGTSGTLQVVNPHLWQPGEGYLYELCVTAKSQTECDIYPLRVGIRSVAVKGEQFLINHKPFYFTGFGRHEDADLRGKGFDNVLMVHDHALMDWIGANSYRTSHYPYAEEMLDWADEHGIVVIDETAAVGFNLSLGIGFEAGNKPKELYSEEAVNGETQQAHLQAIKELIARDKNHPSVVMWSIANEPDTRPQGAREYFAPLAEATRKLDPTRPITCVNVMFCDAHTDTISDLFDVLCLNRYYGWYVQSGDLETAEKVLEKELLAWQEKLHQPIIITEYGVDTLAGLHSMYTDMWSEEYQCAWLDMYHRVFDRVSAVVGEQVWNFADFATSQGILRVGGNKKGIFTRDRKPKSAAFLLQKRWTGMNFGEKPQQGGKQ
T3 sequence (Q8E0N2 whole entry): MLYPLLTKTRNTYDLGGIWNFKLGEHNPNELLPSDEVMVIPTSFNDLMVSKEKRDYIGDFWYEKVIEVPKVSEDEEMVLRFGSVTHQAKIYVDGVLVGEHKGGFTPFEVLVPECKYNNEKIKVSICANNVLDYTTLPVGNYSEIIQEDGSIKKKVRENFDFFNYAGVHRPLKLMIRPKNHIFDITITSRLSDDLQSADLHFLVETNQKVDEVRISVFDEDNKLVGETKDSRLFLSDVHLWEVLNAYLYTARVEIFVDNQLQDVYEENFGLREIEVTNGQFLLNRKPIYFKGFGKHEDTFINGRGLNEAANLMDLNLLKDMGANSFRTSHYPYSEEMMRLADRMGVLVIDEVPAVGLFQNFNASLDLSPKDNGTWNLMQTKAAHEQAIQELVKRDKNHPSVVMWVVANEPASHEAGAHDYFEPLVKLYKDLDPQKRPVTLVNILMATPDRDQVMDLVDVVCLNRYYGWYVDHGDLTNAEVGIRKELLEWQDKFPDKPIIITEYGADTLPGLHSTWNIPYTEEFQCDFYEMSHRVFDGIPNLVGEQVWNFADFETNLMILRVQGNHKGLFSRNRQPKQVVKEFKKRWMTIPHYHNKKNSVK

On to `CCOc1ccc(NC(=S)N(CCO)Cc2cc3cc(C)cc(C)c3[nH]c2=O)cc1` [Inhibitor 1], for which the inhibition at 100 µM (on E. coli GUS (EcGUS) [1] (setting [9]); in [3] (setting [9])) was at least 80% throughout. The IC50 is above 100000 nM in test [2] (setting [10]); above 100000 nM in [2] (setting [11]); above 25000 nM in test [3] (setting [10]); above 25000 nM in [3] (setting [11]); above 100000 nM in test [4]; above 100000 nM in test [4] (setting [12]). Further, the IC50 in test [5], in test [5] (setting [12]), in test [6] and in test [6] (setting [12]) was above 100000 nM throughout. Besides, the “potency toward EcGUS F365 mutant compared with WT” value in the test with EcGUS F365A is recorded as “less potent”. In addition, the “inhibition of EcGUS (in words)” value on E. coli GUS (EcGUS) [7] is “potent”. Moreover, the “inhibition of BfGUS (in words)” value in test [8] was “did not inhibit”.

As to `C1CCc2c(c(N3CCOCC3)nc3sc4c(N5CCNCC5)nnnc4c23)C1` [UNC10201652], at E. coli GUS (EcGUS) [1] (UNC10201652, IC50 pH 6.5 vs pH 7.5), the “decrease in potency from pH 7.5 to pH 6.5” value amounted to 3 fold. In addition, the 50% inhibitory concentration (IC50) on E. coli GUS (EcGUS) [1] (pH 6.5, read-out: UNC10201652 (IC50, nM) pH 6.5) turned out to be 310 ± 20 nM; on E. coli GUS (EcGUS) [1] (pH 7.5, read-out: UNC10201652 (IC50, nM) pH 7.5) it was 100 ± 8 nM; in test [2] (setting [13]), 1900 ± 100 nM; in test [2] (setting [14]), 410 ± 30 nM; in [3] (setting [13]), 450 ± 30 nM; in test [3] (setting [14]), 133 ± 3 nM. Moreover, the IC50 in [4] (setting [15]), in test [4] (setting [16]), in [5] (setting [15]), in [5] (setting [16]), in test [6] (setting [15]) and in test [6] (setting [16]) was above 100000 nM each time. Moreover, at E. coli GUS (EcGUS) [1] (pH 7.5, times more potent than Inhibitor 1), the “potency relative to Inhibitor 1” value turned out to be 19 times. In addition, the “inhibition (in words)” value in test [5] (UNC10201652, text in picture of Fig. 7b) was “No Inhibition”; in [6] (UNC10201652, text in picture of Fig. 7c), “No Inhibition”. The “potency toward EcGUS F365 mutant compared with WT” value with EcGUS F365A is reported as “less potent”. Also, at E. coli GUS (EcGUS) [7], the “inhibition of EcGUS (in words)” value is listed as “potent”. Further, in test [8], the “inhibition of BfGUS (in words)” value is given as “did not inhibit”.
